Results reported in article PMC11845477, “Exploring the principles behind antibiotics with limited resistance” (Nature Communications, 2025).
Like-named read-outs stand apart in the source and are kept apart here.

Columns and labels:
[1] = tested on: E. coli ATCC 25922 (SEN) and E. coli NCTC13846 (MDR); assay: Frequency-of-resistance (FoR) assay, relative MIC of mutants; type: cell-based, Escherichia coli; settings: for Relative MIC / MIC of evolved line: Escherichia coli ATCC 25922 (EC-SEN); for MIC: Escherichia coli
Procedure: The susceptibility of antibiotics to resistance development was evaluated in two strains of each bacterial species: a multidrug-resistant strain and an antibiotic-sensitive strain of Escherichia coli, Klebsiella pneumoniae, Acinetobacter baumannii, and Pseudomonas aeruginosa. To explore first-step resistance, we previously used a standard protocol for spontaneous frequency-of-resistance analysis (FoR assay) at multiple concentrations of each antibiotic[10],[28],[31]–[33]. […] For all other combinations, approximately 10^10 bacterial cells were exposed to one of each antibiotic on agar plates for two days at concentrations where the given strain is susceptible. We examined resistance levels by contrasting the minimum inhibitory concentration (MICs) of the mutated strains to the original wild-type bacterial strain (i.e., relative MIC).
To estimate the frequency of spontaneous mutations that confer resistance in a microbial population, we conducted a frequency of resistance (FoR) assay following established protocols[10],[31]–[33]. […] Prior to plating, bacteria were grown overnight in MHB medium at 37 °C and 250 RPM, then centrifuged and washed in MHB. All experiments were performed in triplicate, and plates were incubated at 37 °C for 48 hours. Total colony-forming units (CFUs) were determined by plating appropriate dilutions onto antibiotic-free MHB agar. Resistance frequencies were calculated by dividing the number of resistant colonies by the initial viable cell count. From the plates with the highest antibiotic concentration, ten colonies were selected for MIC determination and whole-genome sequencing.
(§1) A robotic liquid handling system was used to automatically prepare a 11 to 16-step serial dilution in 384-well microtiter plates (Greiner). A final concentration of 5 × 10^5 bacterial cells per mL were inoculated into each well containing 60 µL MHB medium. Bacterial cultures were incubated at 37 °C with continuous shaking (Infors shaker, 900 rpm with 3 mm throw) for 18 hours (2 replicates from each). Cell growth was monitored by measuring the optical density (OD600 values, using Biotek Synergy microplate reader). MIC was defined as the antibiotic concentration of complete growth inhibition (i.e., OD600 < 0.05). Relative MIC was calculated as follows:1 relativeMIC=MICevolved/MICancestor […]
Supplementary Figure 3. Resistance levels following the frequency of resistance assay across bacterial strains. The level of resistance was measured as the fold change in relative MIC between evolved and ancestral strains. Data are grouped by bacterial strain (A. baumannii (AB), E. coli (EC), K. pneumoniae (KP), and P. aeruginosa (PA)) and categorized as either multidrug-resistant (MDR) or sensitive (SEN). Each data point represents a laboratory evolved line, and boxplots show the median, first and third quartiles, with whiskers indicating the 5th and 95th percentiles. […]
(§2) analysis was performed using two-sided Dunn’s post-hoc test with Benjamini-Hochberg correction for multiple comparisons (**/ * indicates p < 0.01/ 0.05). For detailed information on antibiotic and bacterial species, see Supplementary Table 1. For mode of action groups, refer to Table 1. Source data are provided as a Source Data file.

[2] = tested on: A. baumannii ATCC 17978 (SEN) and A. baumannii ATCC BAA-1605 (MDR); assay: Adaptive laboratory evolution (ALE), relative MIC of evolved lines; type: cell-based, Acinetobacter baumannii; settings: for Relative MIC (log10): AB-SEN (Acinetobacter baumannii ATCC 17978)
Excerpt: Using the same set of bacterial strains, we initiated adaptive laboratory evolution with the aim to maximize the level of antibiotic resistance in the populations achieved during a longer, but fixed time period.
An established protocol for adaptive laboratory evolution[46],[73] was followed to propagate populations with the highest resistance levels. Starting with an antibiotic concentration that caused approximately 50% growth inhibition, ten parallel populations for each antibiotic-ancestor strain combination were grown for 72 hours at 37 °C with continuous shaking (300 RPM). MHB broth medium was used unless stated otherwise. After each incubation, 20 µl of each culture was transferred to four new wells containing fresh medium with increasing antibiotic concentrations (0.5×, 1×, 1.5×, and 2.5× the previous concentration) in a chessboard layout to monitor potential cross-contamination. Growth was monitored by measuring OD600 using a Biotek Synergy 2 microplate reader, and only populations grown in the highest drug concentration with an OD600 > 0.2 were transferred further.
as §1
Supplementary Figure 4. Resistance levels following adaptive laboratory evolution across bacterial strains. The level of resistance was measured as the fold change in relative MIC between evolved and ancestral strains after ~60 days of adaptive laboratory evolution. Data are grouped by bacterial strain (A. baumannii (AB), E. coli (EC), K. pneumoniae (KP), and P. aeruginosa (PA)) and categorized as either multidrug-resistant (MDR) or sensitive (SEN). Each data point represents a laboratory evolved line, and boxplots show the median, first and third quartiles, with whiskers indicating the 5th and 95th percentiles.
as §2, with “Statistical analysis” for “analysis”, “(****/ ***/ **/” for “(**/”, “< 0.0001/ 0.001/” for “<”

[3] = AB-SEN (ATCC 17978), evolved line 1, MIC of evolved line / MIC of ancestor
[4] = AB-SEN (ATCC 17978), evolved line 2, MIC of evolved line / MIC of ancestor
[5] = AB-SEN (ATCC 17978), evolved line 3, MIC of evolved line / MIC of ancestor
[6] = AB-SEN (ATCC 17978), evolved line 4, MIC of evolved line / MIC of ancestor
[7] = AB-SEN (ATCC 17978), evolved line 5, MIC of evolved line / MIC of ancestor
[8] = AB-SEN (ATCC 17978), evolved line 6, MIC of evolved line / MIC of ancestor
[9] = AB-SEN (ATCC 17978), evolved line 7, MIC of evolved line / MIC of ancestor
[10] = AB-SEN (ATCC 17978), evolved line 8, MIC of evolved line / MIC of ancestor
[11] = AB-SEN (ATCC 17978), evolved line 9, MIC of evolved line / MIC of ancestor
[12] = AB-SEN (ATCC 17978), evolved line 10, MIC of evolved line / MIC of ancestor
[13] = evolved line 2 adapted to the named antibiotic
[14] = evolved line 4 adapted to the named antibiotic
[15] = evolved line 5 adapted to the named antibiotic
[16] = Acinetobacter baumannii ATCC 17978 (AB-SEN), evolved line 1
[17] = Acinetobacter baumannii ATCC 17978 (AB-SEN), evolved line 2
[18] = Acinetobacter baumannii ATCC 17978 (AB-SEN), evolved line 3
[19] = Acinetobacter baumannii ATCC 17978 (AB-SEN), evolved line 4
[20] = Acinetobacter baumannii ATCC 17978 (AB-SEN), evolved line 5
[21] = Acinetobacter baumannii ATCC 17978 (AB-SEN), evolved line 6
[22] = Acinetobacter baumannii ATCC 17978 (AB-SEN), evolved line 7
[23] = Acinetobacter baumannii ATCC 17978 (AB-SEN), evolved line 8
[24] = Acinetobacter baumannii ATCC 17978 (AB-SEN), evolved line 9
[25] = Acinetobacter baumannii ATCC 17978 (AB-SEN), evolved line 10
[26] = read-out: MIC of evolved line, Escherichia coli ATCC 25922 (EC-SEN), evolved line 1
[27] = read-out: MIC of evolved line, Escherichia coli ATCC 25922 (EC-SEN), evolved line 2
[28] = read-out: MIC of evolved line, Escherichia coli ATCC 25922 (EC-SEN), evolved line 3

Compound	Relative MIC ([1]; evolved line 1 versus ancestor)	Relative MIC ([1]; evolved line 2 versus ancestor)	Relative MIC ([1]; evolved line 3 versus ancestor)	Relative MIC [2, 3]	Relative MIC [2, 4]	Relative MIC [2, 5]	Relative MIC [2, 6]	Relative MIC [2, 7]	Relative MIC [2, 8]	Relative MIC [2, 9]	Relative MIC [2, 10]	Relative MIC [2, 11]	Relative MIC [2, 12]	Relative MIC (log10) [2, 13]	Relative MIC (log10) [2, 14]	Relative MIC (log10) [2, 15]	Relative MIC [2, 16]	Relative MIC [2, 17]	Relative MIC [2, 18]	MIC [1, 27] [µg/mL]	also measured
Nc1nc(-n2cc(C(=O)O)c(=O)c3cc(F)c(N4CC(O)C4)c(Cl)c32)c(F)cc1F [Delafloxacin]	1	1	1	256	128	256	256	512	256	128	64	128	128	2.107	2.408	2.709	256	128	256	–	Relative MIC (log10) ([2]; evolved line 6 adapted to the named antibiotic): 2.408; Relative MIC (log10) ([2]; evolved line 9 adapted to the named antibiotic): 2.107; Relative MIC [2, 19]: 256; Relative MIC [2, 20]: 512; Relative MIC [2, 21]: 256; Relative MIC [2, 22]: 128; Relative MIC [2, 23]: 64; Relative MIC [2, 24]: 128; Relative MIC [2, 25]: 128
C[C@H]1c2cccc(O)c2C(=O)C2=C(O)[C@]3(O)C(=O)C(C(N)=O)=C(O)[C@@H](N(C)C)[C@@H]3[C@@H](O)[C@@H]21 [Doxycycline]	2	4	2	32	64	16	32	32	16	32	32	16	16	1.806	1.505	1.505	32	64	16	4	MIC [1, 26]: 2 µg/mL; MIC [1, 28]: 2 µg/mL; Relative MIC (log10) ([2]; evolved line 7 adapted to the named antibiotic): 1.505; Relative MIC (log10) ([2]; evolved line 8 adapted to the named antibiotic): 1.505; Relative MIC [2, 19]: 32; Relative MIC [2, 20]: 32; Relative MIC [2, 21]: 16; Relative MIC [2, 22]: 32; Relative MIC [2, 23]: 32; Relative MIC [2, 24]: 16; Relative MIC [2, 25]: 16
C[C@@H](O)[C@H]1C(=O)N2C(C(=O)O)=C(S[C@@H]3CN[C@H](C(=O)N(C)C)C3)[C@H](C)[C@H]12 [Meropenem]	–	–	–	–	–	–	–	–	–	–	–	–	–	–	–	–	–	–	–	0.0156	MIC ([1]; read-out: MIC of evolved line, E. coli NCTC 13846 (EC-MDR), evolved line 2): 0.0156 µg/mL; MIC [1, 26]: 0.0156 µg/mL; MIC [1, 28]: 0.0156 µg/mL
C[C@@H]1CN2c3c(cc4c(N5C(=O)OC[C@@H]5C)noc4c3F)CC3(C(=O)NC(=O)NC3=O)[C@H]2[C@H](C)O1 [Zoliflodacin]	8	8	8	–	–	–	–	–	–	–	–	–	–	–	–	–	–	–	–	16	–
Tridecaptin M152-P3	–	–	–	–	–	–	–	–	–	–	–	–	–	–	–	–	–	–	–	–	MIC of evolved line ([1]; evolved line 1): 4 µg/mL; MIC of evolved line ([1]; evolved line 2): 4 µg/mL; MIC of evolved line ([1]; evolved line 3): 4 µg/mL
